Assay [1] has as its system LTB4 production from IgE-stimulated RBL-2H3 cells. Briefly: Suppressing action on LTB4 production from IgE-stimulated RBL-2H3 cells. The class given is cell-based. To be noted: Rattus norvegicus, 10 min, IgE/DNP-BSA stimulated RBL-2H3 cells, read-out: LTB4 production suppression ratio. Summed up: (§1)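 Rat RBL-2H3 mastocytoma cells, sensitized 30 min with anti-DNP-BSA IgE, then given test compound in 0.5% FBS medium and stimulated with DNP-BSA (100 ng/ml final). Supernatant PGD2 and LTB4 were measured by EIA after 10 min. Suppression ratio is calculated against unstimulated and stimulant-only controls.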

Assay [2] relates to IgE-stimulated footpad edema. Put plainly: Mouse IgE-stimulated footpad edema reaction. It is filed as in vivo. The following applies: C57BL/6 male mice, oral 0.1 to 500 mg/kg, compared with positive control group. The protocol: 4. Suppressing Effect on Mouse IgE-stimulated Footpad Edema Reaction
Suppression on footpad edema caused by IgE antibody as an allergic stimulant was studied by the following method. Groups of C57BL/6 male mice (9- to 11-week old) each consisting of five mice were used for the test. Anti-DNP-BSA IgE serum was subcutaneously administered in a volume of 20 μl to right hind leg footpad of each mouse one day before the test. A test compound was suspended or dissolved in purified water containing 0.5% methylcellulose and orally administered to the test animals at 0.1 to 500 mg/0.2 ml/kg. To the control group, purified water containing 0.5% methylcellulose was administered in a similar manner, which was not added with the test compound. Two hours after the administration of the test compound, 0.2 ml of a solution of DNP-BSA dissolved in physiological saline (Otsuka Pharmaceutical) at 2.5 μg/ml was intravenously administered. The thickness of right hind leg footpad was measured by using a digital thickness gauge (MITSUTOYO) 10, 15, 20, and 30 minutes after the administration of DNP-BSA. A difference of the thickness of footpad measured above and the thickness before the administration of the test compound measured beforehand was regarded as a thickness of edema.
For the thickness of the edema at 10, 15, 20 and 30 minutes after the DNP-BSA administration, a graph was prepared indicating time in abscissa and the edema thickness in ordinate, and edema thickness AUC […] was obtained by calculation according to the following equation. Edema thickness AUC (mm·minute)=1/2×10×A+5×(A+B)/2+5×(B+C)/2+10×(C+D)/2 • A: Edema thickness 10 minutes after DNP-BSA administration • B: Edema thickness 15 minutes after DNP-BSA administration • C: Edema thickness 20 minutes after DNP-BSA administration • D: Edema thickness 30 minutes after DNP-BSA administration
A suppressing ratio on edema of a test compound was obtained by calculation in accordance with the following equation. Edema suppression ratio (%)=[1−B/A]×100 • A: Edema thickness AUC of positive control • B: Edema thickness AUC of test compound administered group (2) Measurement Results

For assay [3], the system named is PGE2 production from IL-1β-stimulated MG-63 cells. Briefly: Suppressing action on PGE2 production from IL-1β-stimulated MG-63 cells. It is filed as cell-based. The following applies: Homo sapiens, IL-1β 1 ng/ml, 18 hours, read-out: PGE2 production suppression ratio. Summed up:
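Human osteosarcoma MG-63 cells (2×10^4/well) switched to 0.5% FBS medium, treated with compound, then stimulated with IL-1β at 1 ng/ml final for 18 h. Supernatant PGE2 measured by EIA; suppression ratio calculated against stimulated and unstimulated wells.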

Assay [4] deals with PGD2 production from IgE-stimulated RBL-2H3 cells. Briefly: Suppressing action on PGD2 production from IgE-stimulated RBL-2H3 cells. The class given is cell-based. To be noted: Rattus norvegicus, 10 min, IgE/DNP-BSA stimulated RBL-2H3 cells, read-out: PGD2 production suppression ratio. Summed up: as §1
Assay [5] has as its system zymosan-stimulated footpad edema. Briefly: Mouse zymosan-stimulated footpad edema reaction. The class given is in vivo. To be noted: ICR female mice, oral 0.1 to 500 mg/kg, compared with positive control group. Summed up:
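Female ICR mice (6–7 weeks, n=8) dosed orally at 0.1 to 500 mg/kg in 0.5% methylcellulose; 1 h later zymosan (1 mg/ml, 0.02 ml) injected s.c. into right hind footpad. Edema volume at 1 and 2 h gave AUC to 2 h; suppression (%) calculated against positive control AUC.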

Results on 15 compounds are retold here after US6867320B2, “Substituted phenylalkanoic acid derivatives and use thereof” (Asahi Kasei Pharma Corporation, priority 2002, dated 2005).

Bounds are passed on as bounds.

With `O=C(O)CCc1ccc(OCC2CC3CCC2C3)c(-c2ccc3[nH]ccc3c2)c1` (stereo not drawn) [Compound 177, 3-[4-(bicyclo[2,2,1]hept-2-ylmethyloxy)-3-(1H-indol-5-yl)phenyl]propionic acid], the inhibition at 0.4 µM in assay [1], in assay [3] and in assay [4] was no less than 50% in each case. For the same compound, the “suppression of footpad edema caused by IgE stimulation” value (“suppression … by IgE stimulation” for short) in assay [2] was “suppressed the footpad edema”. Further, in assay [5], the “suppression of footpad edema caused by zymosan” value (“suppression … by zymosan” for short) is recorded as “suppressed footpad edema”.

`CC(C)C(C)COc1ccc(CCC(=O)O)cc1-c1ccc2[nH]ccc2c1` (stereo not drawn) [Compound 181, 3-[4-(2,3-dimethylbutyloxy)-3-(1H-indol-5-yl)phenyl]propionic acid]: the inhibition at 0.4 µM in assay [1], in assay [3] and in assay [4] was no less than 50% in each case. Besides, the “suppression … by IgE stimulation” value in assay [2] is reported as “suppressed the footpad edema”. In assay [5], the “suppression … by zymosan” value was “suppressed footpad edema”.

On to `CCCCOc1ccc(COc2ccc(CCC(=O)O)cc2-c2ccc3[nH]ccc3c2)cc1` [Compound 186, 3-{4-[4-(butyloxy)phenylmethyloxy]-3-(1H-indol-5-yl)phenyl}propionic acid], for which the inhibition at 0.4 µM in assay [1], in assay [3] and in assay [4] was no less than 50% throughout. The “suppression … by IgE stimulation” value in assay [2] is “suppressed the footpad edema”. The “suppression … by zymosan” value in assay [5] is recorded as “suppressed footpad edema”.

For `O=C(O)CCc1ccc(OCCCc2ccccc2)c(-c2ccc3[nH]ccc3c2)c1` [Compound 220, 3-[3-(1H-indol-5-yl)-4-(3-phenylpropyloxy)phenyl]propionic acid], the inhibition at 0.4 µM in assay [1], in assay [3] and in assay [4] was no less than 50% in each case. Further, the “suppression … by IgE stimulation” value in assay [2] is given as “suppressed the footpad edema”. The “suppression … by zymosan” value in assay [5] is “suppressed footpad edema”.

On to `CN(CCOc1ccc(CCC(=O)O)cc1-c1ccc2[nH]ccc2c1)c1ccccc1` [Compound 229, 3-{3-(1H-indol-5-yl)-4-[2-(N-phenyl-N-methylamino)-ethyloxy]phenyl}propionic acid], for which the inhibition at 0.4 µM in assay [1], in assay [3] and in assay [4] was no less than 50% each time. In addition, the “suppression … by IgE stimulation” value in assay [2] is “suppressed the footpad edema”. For the same compound, the “suppression … by zymosan” value in assay [5] is recorded as “suppressed footpad edema”.

For `O=C(O)CCc1ccc(OCC2CCCCC2)c(-c2ccc3[nH]ccc3c2)c1` [Compound 231, 3-[4-cyclohexylmethyloxy-3-(1H-indol-5-yl)phenyl]propionic acid], the inhibition at 0.4 µM in assay [1], in assay [3] and in assay [4] was no less than 50% throughout. For the same compound, in assay [2], the “suppression … by IgE stimulation” value was “suppressed the footpad edema”. Moreover, the “suppression … by zymosan” value in assay [5] was “suppressed footpad edema”.

As to `Cn1ccc2cc(-c3cc(CCC(=O)O)ccc3OCC3CCCCC3)ccc21` [Compound 233, 3-[4-cyclohexylmethyloxy-3-(1-methyl-1H-indol-5-yl)phenyl]propionic acid], the inhibition at 0.4 µM in assay [1], in assay [3] and in assay [4] was no less than 50% throughout. Moreover, the “suppression … by IgE stimulation” value in assay [2] is listed as “suppressed the footpad edema”. In addition, the “suppression … by zymosan” value in assay [5] is on record as “suppressed footpad edema”.

On to `CCn1ccc2cc(-c3cc(CCC(=O)O)ccc3OCC3CCCC3)ccc21` [Compound 236, 3-[4-cyclopentylmethyloxy-3-(1-ethyl-1H-indol-5-yl)phenyl]propionic acid], for which the inhibition at 0.4 µM in assay [1], in assay [3] and in assay [4] was no less than 50% each time. Further, the “suppression … by IgE stimulation” value in assay [2] is listed as “suppressed the footpad edema”. Moreover, the “suppression … by zymosan” value in assay [5] is given as “suppressed footpad edema”.

For the compound `O=C(O)CCc1ccc(OCC2CCCC2)c(-c2ccc3c(ccn3CCO)c2)c1` [Compound 243, 3-{4-cyclopentylmethyloxy-3-[1-(2-hydroxyethyl)-1H-indol-5-yl]phenyl}propionic acid], the inhibition at 0.4 µM in assay [1], in assay [3] and in assay [4] was no less than 50% each time. In assay [2], the “suppression … by IgE stimulation” value is “suppressed the footpad edema”. For the same compound, the “suppression … by zymosan” value in assay [5] is recorded as “suppressed footpad edema”.

Turning to `Cn1ccc2cc(-c3cc(CCC(=O)O)ccc3OCc3ccccc3Cl)ccc21` [Compound 245, 3-[4-(2-chlorophenylmethyloxy)-3-(1-methyl-1H-indol-5-yl)phenyl]propionic acid], the inhibition at 0.4 µM in assay [1], in assay [3] and in assay [4] was no less than 50% in each case. Also, in assay [2], the “suppression … by IgE stimulation” value was “suppressed the footpad edema”. Further, the “suppression … by zymosan” value in assay [5] is reported as “suppressed footpad edema”.

`CCn1ccc2cc(-c3cc(CCC(=O)O)ccc3OC3CCCCC3)ccc21` [Compound 248, 3-[4-cyclohexyloxy-3-(1-ethyl-1H-indol-5-yl)phenyl]propionic acid]: the inhibition at 0.4 µM in assay [1], in assay [3] and in assay [4] was no less than 50% throughout. For the same compound, in assay [2], the “suppression … by IgE stimulation” value is reported as “suppressed the footpad edema”. The “suppression … by zymosan” value in assay [5] is “suppressed footpad edema”.

For the compound `O=C(O)CCc1cc(F)c(OCC2CCCC2)c(-c2ccc3[nH]ccc3c2)c1` [Compound 261, 3-[4-cyclopentylmethyloxy-3-fluoro-5-(1H-indol-5-yl)phenyl]propionic acid], the inhibition at 0.4 µM in assay [1], in assay [3] and in assay [4] was no less than 50% throughout. Besides, in assay [2], the “suppression … by IgE stimulation” value is “suppressed the footpad edema”. Besides, the “suppression … by zymosan” value in assay [5] is “suppressed footpad edema”.

Turning to `O=C(O)CCc1ccc(OCC2CCCC2)c(-c2ccc3sccc3c2)c1` [Compound 281, 3-[3-(benzo[b]thiophen-5-yl)-4-cyclopentylmethyloxyphenyl]propionic acid], the inhibition at 0.4 µM in assay [1], in assay [3] and in assay [4] was no less than 50% each time. In addition, the “suppression … by IgE stimulation” value in assay [2] was “suppressed the footpad edema”. For the same compound, the “suppression … by zymosan” value in assay [5] was “suppressed footpad edema”.

On to `Nc1nc2ccc(-c3cc(CCC(=O)O)ccc3OCC3CCCCC3)cc2s1` [Compound 289, 3-[3-(2-aminobenzothiazol-6-yl)-4-cyclohexylmethyloxyphenyl]propionic acid], for which the inhibition at 0.4 µM in assay [1], in assay [3] and in assay [4] was no less than 50% each time. Further, the “suppression … by IgE stimulation” value in assay [2] is “suppressed the footpad edema”. The “suppression … by zymosan” value in assay [5] is reported as “suppressed footpad edema”.

In the case of `Nc1nc2ccc(-c3cc(CCC(=O)O)ccc3OC3CCCC3)cc2s1` [Compound 293, 3-[3-(2-aminobenzothiazol-6-yl)-4-cyclopentyloxyphenyl]propionic acid], the inhibition at 0.4 µM in assay [1], in assay [3] and in assay [4] was no less than 50% each time. For the same compound, the “suppression … by IgE stimulation” value in assay [2] is on record as “suppressed the footpad edema”. In assay [5], the “suppression … by zymosan” value was “suppressed footpad edema”.
